# Legend:
# BT474 = test: Crystal violet anti-proliferative assay; assay type: cell-based, human
# Method: (§1) Table 1). The presence of high concentrations of serum had no effects on the potencies of the drug. […] Similar results were observed when the drug exposure time was extended to 48 h. […] The antiproliferative activity of another gold(III) porphyrin complex ([Au^III(TPP)]Cl, gold-1a) in MDA-MB-231 cells was also tested. […] Apoptosis of MDA-MB-231 cells were evaluated by measuring DNA fragmentation.
# MCF7 = test: Crystal violet anti-proliferative assay; assay type: cell-based, human
# Method: as §1
# MDA-MB-231 = test: Crystal violet anti-proliferative assay; assay type: cell-based, human
# Method: as §1
# SKBR3 = test: Crystal violet anti-proliferative assay; assay type: cell-based, human
# Method: as §1
# T47D = test: Crystal violet anti-proliferative assay; assay type: cell-based, human
# Method: as §1
# [1] = tested on: human breast carcinoma cells (BT474, MCF-7, T47D, MDA-MB-231, SKBR3); test: Crystal violet assay, statements on the whole panel; assay type: cell-based; conditions: five breast carcinoma cell lines
# Method: as §1
# [2] = tested on: MDA-MB-231 tumor xenograft; test: Mammary MDA-MB-231 tumor growth in nude mice; assay type: in vivo
# Method: Most of the animals remained in a tumor-free status until day 25, at which recurrence of a tumor was observed.
# MDA-MB-231 cells were inoculated into the mammary fat pad of nude mice as described in Methods. […] Tumor growth (A) and body weight (B) were monitored bi-weekly. C, Kaplan-Meier estimates of the survival curves were calculated and plotted. D, At the end of experiment, tumors were collected and weighed. # and *, P<0.05 versus PET control, n=4-6.
# β-catenin = β-catenin protein level, nuclear activity, phosphorylation and ubiquitination; assay type: cell-based, human; conditions: MDA-MB-231 cells
# Source text: Aberrant activation of the Wnt/β-catenin signalling plays a key role in the development of many human cancer diseases. Intracellular accumulation of β-catenin protein has been observed in a large portion of human breast tumors. […] On the contrary, cisplatin had no influence on both the protein levels and nuclear activities of β-catenin. In the absence of a Wnt signal, β-catenin is phosphorylated by glycogen synthase kinase-3beta, which facilitates the subsequent ubiquitination and proteasome degradation.
# acetylated histone H4 = test: ChIP-PCR of acetylated histone H4 at promoter regions; assay type: cell-based, human; conditions: MDA-MB-231, 24 hours
# Method: To further confirm these unexpected observations, ChIP-PCR was performed to quantify the acetylated histone H4 levels at the promoter regions of the above genes. […] Similar levels of acetylated histone H4 were only observed at 24 hours after treatment.
# MDA-MB-231 cells were treated with different drugs for 24 hours. ChiP-PCR was performed for analyzing the levels of acetylated histone H4 at the promoter regions of CTNNB1, WIF1, WNT5B, WNT1, WISP1 and ESR1, using antibody recognizing histone H4 acetylated at lysines 5, 8, 12, and 16. Bar charts represented the quantitative results by real time PCR analysis after normalization against the input DNA. Representative agarose gel images were shown at the bottom. […] Equal protein loading was confirmed by Amido black staining. *, P<0.01 versus vehicle control, n=3.
# histone H4 acetylation = test: Western blotting of global acetylated histone H4; assay type: cell-based, human; conditions: MDA-MB-231, six and 24 hours
# [3] = intraductal 15 mg/kg, end of experiment
compound,measurement,setting,value
N.N.[Cl][Pt][Cl] [cisplatin],IC50,"BT474; 24 hours, 0.5% FBS",49 ± 0.5 µM
same,IC50,"BT474; 24 hours, 10% FBS",45.1 ± 8.2 µM
same,IC50,"BT474; 48 hours, 0.5% FBS",1.6 ± 0.53 µM
same,IC50,"BT474; 48 hours, 10% FBS",2.89 ± 0.9 µM
same,IC50,"MCF7; 24 hours, 0.5% FBS",14.3 ± 1.46 µM
same,IC50,"MCF7; 24 hours, 10% FBS",20.1 ± 4.92 µM
same,IC50,"MCF7; 48 hours, 0.5% FBS",10.1 ± 1.47 µM
same,IC50,"MCF7; 48 hours, 10% FBS",15.9 ± 2.33 µM
same,IC50,"MDA-MB-231; 24 hours, 0.5% FBS",7.37 ± 1.19 µM
same,IC50,"MDA-MB-231; 24 hours, 10% FBS",21 ± 11.2 µM
same,IC50,"MDA-MB-231; 48 hours, 0.5% FBS",6.52 ± 0.48 µM
same,IC50,"MDA-MB-231; 48 hours, 10% FBS",18.4 ± 3.42 µM
same,IC50,"SKBR3; 24 hours, 0.5% FBS",65.9 ± 25.5 µM
same,IC50,"SKBR3; 24 hours, 10% FBS",76.3 ± 33.8 µM
same,IC50,"SKBR3; 48 hours, 0.5% FBS",33.9 ± 11 µM
same,IC50,"SKBR3; 48 hours, 10% FBS",41 ± 7.91 µM
same,IC50,"T47D; 24 hours, 0.5% FBS",66.5 ± 12.4 µM
same,IC50,"T47D; 24 hours, 10% FBS",99.4 ± 5.71 µM
same,IC50,"T47D; 48 hours, 0.5% FBS",7.76 ± 5.54 µM
same,IC50,"T47D; 48 hours, 10% FBS",6.69 ± 3.14 µM
same,IC50 values higher when compared to gold-2a,[1],100-3000 times
same,animals died,[2]; after two intraductal injections,~40%
same,average tumor weights,[2]; [3],0.42 g
same,tumor weight decreased compared to control group,[2]; [3],34%
same,rates of tumor growth compared to gold-2a,"[2]; intraductal, same dosage (15 mg/kg)",attenuated the rates of tumor growth to a much lesser degree
same,nuclear transcriptional activities of β-catenin,β-catenin,no influence
same,protein levels of β-catenin,"β-catenin; from four hours, 0.5% and 10% FBS",no influence
"CC(/C=C/C(=O)NO)=C\[C@@H](C)C(=O)c1ccc(N(C)C)cc1 [TSA, trichostatin A]",acetylated histone H4 at CTNNB1 promoter,acetylated histone H4,not significantly altered
same,acetylated histone H4 at ESR1 promoter,acetylated histone H4,increased
same,acetylated histone H4 at WIF1 promoter,acetylated histone H4,no significant effects
same,acetylated histone H4 at WISP1 promoter,acetylated histone H4,not significantly altered
same,acetylated histone H4 at WNT1 promoter,acetylated histone H4,no significant effects
same,acetylated histone H4 at WNT5B promoter,acetylated histone H4,no significant effects
same,global histone H4 acetylation,histone H4 acetylation,significant induction
[Au^III(TPP)]Cl [gold-1a],less effective than gold-2a (growth inhibition curves),"MDA-MB-231; MDA-MB-231 cells, non-linear regression",~1000 fold
same,inhibition of breast tumor growth,[2]; sub-lethal concentrations,no inhibition
